For series [1], the target named is T1, CYP2E1 (Rattus norvegicus, UniProt P05182, species not given). The series can be described thus: Inhibition of chlorzoxazone 6-hydroxylation in CYP2E1 liver microsomes. Conditions: human, microsomes, chlorzoxazone metabolism. (In general: Microsomes from liver hold many membrane-bound enzymes, among them those of drug oxidation.)
Series [2] concerns the target T1, CYP2E1. The series can be described thus: in vitro. Conditions: human, microsomes.
Another series deals with Rabbit CYP2E1 (Oryctolagus cuniculus, UniProt P08682). The series can be described thus: Inhibition of p-nitrophenol hydroxylation by purified rabbit CYP2E1. It counts as biochemical.
Sequence of Rabbit CYP2E1 (P08682 whole entry): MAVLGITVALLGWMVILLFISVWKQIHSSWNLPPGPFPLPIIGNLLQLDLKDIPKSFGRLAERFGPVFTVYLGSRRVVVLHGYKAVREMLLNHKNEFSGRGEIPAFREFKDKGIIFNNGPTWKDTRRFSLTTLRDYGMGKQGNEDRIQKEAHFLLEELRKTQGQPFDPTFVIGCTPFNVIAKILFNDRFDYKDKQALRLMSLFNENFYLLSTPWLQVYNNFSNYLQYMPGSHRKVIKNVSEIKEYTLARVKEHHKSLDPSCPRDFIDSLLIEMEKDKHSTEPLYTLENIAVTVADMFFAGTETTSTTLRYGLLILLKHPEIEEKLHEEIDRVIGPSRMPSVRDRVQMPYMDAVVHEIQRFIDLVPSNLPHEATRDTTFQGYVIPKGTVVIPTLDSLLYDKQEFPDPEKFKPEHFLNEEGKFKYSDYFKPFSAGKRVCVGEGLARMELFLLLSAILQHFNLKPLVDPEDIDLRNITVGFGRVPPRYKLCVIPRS
In series [3] the target is CYP2E1 (Rattus norvegicus, UniProt P05182). The series can be described thus: Inhibition of chlorzoxazone 6-hydroxylation in CYP2E1 liver microsomes. Conditions: chlorzoxazone metabolism; for pKi: Log (1/Ki).
Sequence of CYP2E1 (Rattus norvegicus, UniProt P05182) (P05182 2-493): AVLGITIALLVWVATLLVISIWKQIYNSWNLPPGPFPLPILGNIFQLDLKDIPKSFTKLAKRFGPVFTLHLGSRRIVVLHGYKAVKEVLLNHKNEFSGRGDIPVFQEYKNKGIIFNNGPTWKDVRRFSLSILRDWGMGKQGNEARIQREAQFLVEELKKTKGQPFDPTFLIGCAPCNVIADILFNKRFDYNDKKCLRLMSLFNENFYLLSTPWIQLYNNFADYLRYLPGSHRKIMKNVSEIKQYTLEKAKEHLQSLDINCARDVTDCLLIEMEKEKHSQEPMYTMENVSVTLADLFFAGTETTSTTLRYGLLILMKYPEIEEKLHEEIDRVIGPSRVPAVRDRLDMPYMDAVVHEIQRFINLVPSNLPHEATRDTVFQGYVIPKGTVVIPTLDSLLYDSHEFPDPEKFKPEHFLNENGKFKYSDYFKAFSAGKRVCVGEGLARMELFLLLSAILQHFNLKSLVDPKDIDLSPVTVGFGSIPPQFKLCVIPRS
The mark [4] stands for this setting: Ki, substituted pyrazoles, purified rabbit CYP2E1, p-nitrophenol as substrate.
Where [5] appears, read: pH 7.4, pKi±stdev, Table 3 test set.

T1 sequence (P05182 2-493): as above

The term Ki denotes the equilibrium dissociation constant of an inhibitor or competing ligand from its target. Lower therefore signals tighter binding. With `O=C(n1ccnc1)C(F)(F)F` [1-(trifluoroacetyl)-imidazole], the Ki at 10 min on CYP2E1 [1] (pH 7.4, pKi, Log (1/Ki)) is 251 µM.
Same read-out and setting: the value for `Cn1ccnc1` [1-methylimidazole] was 6.31 µM.
`Cc1cccc(C)n1` [2,6-lutidine] gave an inhibition constant (Ki) at 10 min at CYP2E1 [1] (pH 7.4, pKi, Log (1/Ki)) of 398 µM.
Regarding `Oc1ccc2ccccc2n1` [2-hydroxyquinoline], the Ki at 10 min was 931 µM on CYP2E1 [2] (pH 7.4, Ki); 1000 µM at CYP2E1 [2] (pH 7.4, pKi); 1000 µM on CYP2E1 [2] (pH 7.4, pKi±stdev).
`Cc1cc[nH]n1` [3-methylpyrazole] showed a Ki on Rabbit CYP2E1 (setting [4]) of 5.4 µM.
Turning to `Cc1cnc2ccccc2c1` [3-methylquinoline], affinity at CYP2E1 [1] (pH 7.4, pKi, Log (1/Ki)) was put at a Ki at 10 min of 100 µM.
A word on the pKi: it is −log10 of the Ki, conventionally taken in molar units. `CCCOc1cn[nH]c1` [4-O-propylpyrazole] yielded a pKi at Rabbit CYP2E1 (Log (1/Ki), substituted pyrazoles, purified rabbit CYP2E1, p-nitrophenol) of 6.1. Besides, on Rabbit CYP2E1 (substituted pyrazoles, purified rabbit CYP2E1, p-nitrophenol as substrate), the Ki worked out at 0.79 µM.
`CC(=O)Nc1cn[nH]c1` [4-acetylaminopyrazole] came in with a Ki at Rabbit CYP2E1 (setting [4]) of 5750 µM. This counts as millimolar.
Same read-out and setting: with `Cc1n[nH]cc1Br` [4-bromo-3-methylpyrazole] the figure was 3 µM.
For `OCc1c[nH]cn1` [4-hydroxymethylimidazole], on CYP2E1 [1] (pH 7.4, pKi, Log (1/Ki)), the affinity, expressed as Ki at 10 min, was 501 µM.
Turning to `Oc1ccnc2ccccc12` [4-hydroxyquinoline], the inhibition constant (Ki) at 10 min is 592 µM on CYP2E1 [2] (pH 7.4, Ki) and 631 µM on CYP2E1 [2] (pH 7.4, pKi).
As to `Ic1cn[nH]c1` [4-iodopyrazole], at Rabbit CYP2E1 (setting [4]), the Ki stood at 1 µM.
For the molecule `O=[N+]([O-])c1c[nH]cn1` [4-nitroimidazole], the Ki at 10 min on CYP2E1 [1] (pH 7.4, pKi, Log (1/Ki)) was 12.6 µM; on CYP2E1 [1] (setting [5]), 12.6 µM.
`O=[N+]([O-])c1cn[nH]c1` [4-nitropyrazole] gave a Ki at Rabbit CYP2E1 (setting [4]) of 21 µM.
`CCCCCc1cn[nH]c1` [4-pentylpyrazole] gave a Ki on Rabbit CYP2E1 (setting [4]) of 0.06 µM. This Ki lies about 350-fold lower than the previous one.
Turning to `CCCc1cn[nH]c1` [4-propylpyrazole], the Ki on Rabbit CYP2E1 (setting [4]) was 0.16 µM; at Rabbit CYP2E1 (pKi±stdev, Table 3 test set, substituted pyrazole, purified rabbit CYP2E1, p-nitrophenol), 0.158 µM.
In the case of `Oc1ccc2ncccc2c1` [6-hydroxyquinoline], the Ki at 10 min was 218 µM on CYP2E1 [2] (pH 7.4, Ki) and 200 µM on CYP2E1 [2] (pH 7.4, pKi).
In the case of `Oc1cccc2cccnc12` [8-hydroxyquinoline], the affinity at CYP2E1 [1] (pH 7.4, pKi, Log (1/Ki)) corresponds to a Ki at 10 min of 79.4 µM.
Molecule `CCCCn1ccnc1` [N-(n-butyl)imidazole] registered a pKi on CYP2E1 [3] of 6.2.
`COC(=O)c1ccncc1` [methyl isonicotinate]: the pKi at CYP2E1 [3] amounted to 5.6. For the same molecule, the “pKi±stdev” value on CYP2E1 [3] (Table 3 test set) is given as 5.6±0.1.
The molecule `COC(=O)c1cccnc1` [methyl nicotinate] had a Ki at 10 min at CYP2E1 [1] (pH 7.4, pKi, Log (1/Ki)) of 20 µM. This lies in the double-digit micromolar range.
On CYP2E1 [3], `c1cn[nH]c1` [pyrazole] yielded a pKi of 4.4.
The molecule `c1ccncc1` [pyridine] gave a Ki at 10 min at CYP2E1 [1] (pH 7.4, pKi, Log (1/Ki)) of 12.6 µM.
For the molecule `c1ccc2ncccc2c1` [quinoline], the Ki at 10 min was 63.1 µM on CYP2E1 [1] (pH 7.4, pKi, Log (1/Ki)) and 63.1 µM at CYP2E1 [1] (setting [5]).

(Values after article PMC3129366 (Chemico-biological interactions, 2011).)
